# Results from US10328075B2, “Method of treatment and compounds for use therein” (Baker Heart and Diabetes Institute, priority 2015, dated 2019).
# System: adult mouse cardiac fibroblasts
# Test: TGF-β stimulation of adult mouse cardiac fibroblasts, CTGF and IL-1β expression
# Format: cell-based
# Conditions: 10 μM, 24 h TGF-β
# Description: Isolation and culture of primary rat cardiomyocytes and mouse cardiac fibroblasts: All materials used for cell isolation were of tissue culture grade. Isolation of primary neonatal rat cardiac cardiomyocytes (NRCM) and adult mouse cardiac fibroblasts (AMCF) was performed by serial enzymatic digestion, as previously described (Irvine et al 2012 & Irvine et al. 3) NRCM were plated onto either 12-well tissue culture plates (for simulated ischemia-reperfusion, via hypoxia-reoxygenation, H-R) or 60 mm tissue culture dishes (for gene expression) at a density of 1.3×10^5 cells/cm^2, in the presence of 1% 5-bromo-2′-deoxyuridine. AMCF (passage #3) were seeded onto 60 mm tissue culture dishes at 9.5×10^4 cells/cm^2 and allowed to grow to 80% confluence prior to study. […] At the end of hypoxia, Kreb's buffer was replaced with fresh, sterile-filtered Kreb's buffer, in the presence or absence of FPR agonists Cmpd17b, Cmpd43 (both 1 μM or vehicle, and NRCM were subjected to 48 h reoxygenation at 37° C. At the end of 48 h reoxygenation, NRCM supernatant was collected for assessment of cardiomyocyte injury. Cardiomyocyte release of cTnI was determined using a commercially available, high-sensitivity rat cTnI ELISA kit (Life Diagnostic Inc.) as per the manufacturer's instructions. Separate NRVM on 60 mm dishes were incubated for 48 h at 37° C. in serum-free DMEM, in the presence or absence of FPR agonists Cmpd17b, Cmpd43 (both 1 μM) or vehicle. At the end of 48 h, RNA was extracted and real-time PCR performed (as described previously (Huynh et al. 2012)), to determine the relative gene expression of rat Fprs (rFpr1, rFpr2 and rFpr3, expressed as the threshold cycle number Ct subtracted from the maximum cycle number utilized, 40). […]
# Cardiomyocytes injury responses in vitro: Neonatal rat cardiomyocytes and adult mouse cardiofibroblasts were isolated and cultured as described (online Supplement). […] Cardiomyocyte injury was assessed by measurement of cardiac cTnI in cardiomyocyte supernatant. […]
Compound,TGF-β-induced pro-inflammatory IL-1β response in cardiofibroblasts,Pro-fibrotic CTGF response to TGF-β in cardiofibroblasts
"COc1cccc(Cc2cc(C)nn(C(C)C(=O)Nc3ccc(Br)cc3)c2=O)c1 (stereo not drawn) [BIDI-001, N-(4-bromophenyl)-2-[5-(3-methoxybenzyl)-3-methyl-6-oxo-6H-pyridazin-1-yl]-propionamide]",not,
CC(C)C1C(NC(=O)Nc2ccc(Cl)cc2)C(=O)N(c2ccccc2)N1C (stereo not drawn) [BIDI-002],tended to persist,remained significant
